Where only a bound is given, the exact number is not on record here.

The assay has as its system beta-TC6 cells. Briefly: Insulin HTRF assay (relative activity Ar) in beta-TC6 cells. Format: cell-based, mouse. The conditions noted are these: Mus musculus, Beta-TC6, 4 h, insulin HTRF, supernatant of beta-TC6 cells, incubation with test compound at 37°C for 2, 3, 4h; read-out: Ar (relative activity). In a few lines:
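beta-TC6 cells (15k/well, seeded 24 or 48 h) washed, then exposed to compound in induction buffer (0.5% DMSO final) for 2, 3 or 4 h at 37°C.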
Turning to `c1csc(-c2nc3ccncc3[nH]2)c1` [Compound 743, 2-(2-thienyl)-3H-imidazo[4,5-c]pyridine], the Emax is 30 to 50%.

As for `CNc1nc2cnc(Nc3ccc(F)c(Cl)c3)cc2n1-c1cc(OC)c(OC)c(OC)c1` [Compound 753, N6-(3-chloro-4-fluoro-phenyl)-N2-methyl-1-(3,4,5-trimethoxyphenyl)imidazo[4,5-c]pyridine-2,6-diamine], the Emax lay in the range of 0 to 30%.

Regarding `c1cc2[nH]c(-c3ccsc3)cc2c(Nc2ccc3c(c2)OCO3)n1` [Compound 263, N-(1,3-benzodioxol-5-yl)-2-(3-thienyl)-1H-pyrrolo[3,2-c]pyridin-4-amine], the Emax was 50 to 100%.

Consider `COc1ccc(Nc2cc3[nH]c(-c4ccc(C(=O)N(C)C)cc4)cc3cn2)c(OC)c1` [Compound 20, 4-[6-(2,4-dimethoxyanilino)-1H-pyrrolo[3,2-c]pyridin-2-yl]-N,N-dimethyl-benzamide], for which the Emax lay within 50 to 100%.

For the compound `Cn1c(-c2cccnc2)cc2cnc(Nc3ccc(F)cc3)cc21` [Compound 92, N-(4-fluorophenyl)-1-methyl-2-(3-pyridyl)pyrrolo[3,2-c]pyridin-6-amine], the Emax was in the range of 0 to 30%.

In the case of `COc1cccc(-c2nc3c(Nc4cccc(O)c4)nccc3[nH]2)c1` [Compound 374, 3-[[2-(3-methoxyphenyl)-1H-imidazo[4,5-c]pyridin-4-yl]amino]phenol], the Emax fell in the range of 50 to 100%.

With `CNc1nc2cnc(Nc3ccc(N4CCN(C)CC4)cc3)cc2n1CC1CC1` [Compound 572, 1-(cyclopropylmethyl)-N2-methyl-N6-[4-(4-methylpiperazin-1-yl)phenyl]imidazo[4,5-c]pyridine-2,6-diamine], the Emax fell in the range of 50 to 100%.

Turning to `c1ccc(Cn2cnc3c(NCc4ccc5c(c4)OCO5)nccc32)cc1` [Compound 454, N-(1,3-benzodioxol-5-ylmethyl)-1-benzyl-imidazo[4,5-c]pyridin-4-amine], the Emax was in the range of 50 to 100%.

On to `CNc1nc2cnc(Nc3cccc(O)c3)cc2n1-c1ccccc1` [Compound 513, 3-[[2-(methylamino)-1-phenyl-imidazo[4,5-c]pyridin-6-yl]amino]phenol], for which the Emax lay in the range of 50 to 100%.

As to `CN(C)c1cccc(Nc2nccc3[nH]c(-c4ccncc4)nc23)c1` [Compound 426, N1,N1-dimethyl-N3-[2-(4-pyridyl)-1H-imidazo[4,5-c]pyridin-4-yl]benzene-1,3-diamine], the Emax lay within 50 to 100%.

Turning to `COc1cccc(-c2cc3c(Nc4cccnc4)nccc3[nH]2)c1` [Compound 308, 2-(3-methoxyphenyl)-N-(3-pyridyl)-1H-pyrrolo[3,2-c]pyridin-4-amine], the Emax is 50 to 100%.

For the compound `c1cncc(-c2cc3cnc(Nc4ccncc4)cc3[nH]2)c1` [Compound 76, 2-(3-pyridyl)-N-(4-pyridyl)-1H-pyrrolo[3,2-c]pyridin-6-amine], the Emax is 30 to 50%.

With `COc1ccc(-c2cc3c(cn2)nc(Nc2ccccc2)n3C)cc1` [Compound 847, 6-(4-methoxyphenyl)-1-methyl-N-phenyl-imidazo[4,5-c]pyridin-2-amine], the Emax was in the range of 30 to 50%.

Turning to `COc1ccc(CNc2nc3cnc(Nc4ccc(F)cc4)cc3n2C)cc1OC` [Compound 607, N2-[(3,4-dimethoxyphenyl)methyl]-N6-(4-fluorophenyl)-1-methyl-imidazo[4,5-c]pyridine-2,6-diamine], the Emax was in the range of 50 to 100%.

`COc1cccc(-c2nc3c(Nc4cc(OC)c(OC)c(OC)c4)nccc3[nH]2)c1` [Compound 367, 2-(3-methoxyphenyl)-N-(3,4,5-trimethoxyphenyl)-1H-imidazo[4,5-c]pyridin-4-amine]: the Emax was in the range of 30 to 50%.

For the compound `CNc1nc2cnc(Nc3ccccn3)cc2n1-c1cccc(C(F)(F)F)c1` [Compound 548, N2-methyl-N6-(2-pyridyl)-1-[3-(trifluoromethyl)phenyl]imidazo[4,5-c]pyridine-2,6-diamine], the Emax fell in the range of 30 to 50%.

On to `COc1ccc(-c2nc3c(NCC4CC4)nccc3[nH]2)cc1OC` [Compound 354, N-(cyclopropylmethyl)-2-(3,4-dimethoxyphenyl)-1H-imidazo[4,5-c]pyridin-4-amine], for which the Emax is 50 to 100%.

`FC(F)(F)c1cccc(-c2cc3c(cn2)ncn3-c2ccccc2)c1` [Compound 752, 1-phenyl-6-[3-(trifluoromethyl)phenyl]imidazo[4,5-c]pyridine]: the Emax fell in the range of 0 to 30%.

On to `Cn1c(-c2cccc(F)c2)cc2cnc(Nc3ccc(O)cc3)cc21` [Compound 17, 4-[[2-(3-fluorophenyl)-1-methyl-pyrrolo[3,2-c]pyridin-6-yl]amino]phenol], for which the Emax fell in the range of 50 to 100%.

`Cn1c(-c2ccsc2)cc2c(Nc3ccccn3)nccc21` [Compound 280, 1-methyl-N-(2-pyridyl)-2-(3-thienyl)pyrrolo[3,2-c]pyridin-4-amine]: the Emax fell in the range of 30 to 50%.

On to `CN1CCN(c2cc3c(cn2)cc(-c2cnn(C)c2)n3Cc2ccccc2)CC1` [Compound 154, 1-benzyl-6-(4-methylpiperazin-1-yl)-2-(1-methylpyrazol-4-yl)pyrrolo[3,2-c]pyridine], for which the Emax fell in the range of 30 to 50%.

As to `CC(C)c1ccc(Nc2cc3[nH]c(-c4ccc(C(=O)N(C)C)cc4)cc3cn2)cc1` [Compound 38, 4-[6-(4-isopropylanilino)-1H-pyrrolo[3,2-c]pyridin-2-yl]-N,N-dimethyl-benzamide], the Emax was in the range of 0 to 30%.

On to `COc1ccc(Cn2cnc3cnc(Nc4ccc(NC(C)=O)cc4)cc32)cc1OC` [Compound 730, N-[4-[[1-[(3,4-dimethoxyphenyl)methyl]imidazo[4,5-c]pyridin-6-yl]amino]phenyl]acetamide], for which the Emax was 50 to 100%.

`COCCCNc1nccc2[nH]c(-c3ccccc3)nc12` [Compound 340, N-(3-methoxypropyl)-2-phenyl-1H-imidazo[4,5-c]pyridin-4-amine]: the Emax lay in the range of 30 to 50%.

On to `CNc1nc2cnc(-c3ccc(O)c(OC)c3)cc2n1C` [Compound 612, 2-methoxy-4-[1-methyl-2-(methylamino)imidazo[4,5-c]pyridin-6-yl]phenol], for which the Emax was 50 to 100%.

As for `CN(c1ccccc1)c1cc2c(cn1)cc(-c1cnn(C)c1)n2C` [Compound 140, N,1-dimethyl-2-(1-methylpyrazol-4-yl)-N-phenyl-pyrrolo[3,2-c]pyridin-6-amine], the Emax lay within 30 to 50%.

In the case of `CNc1nc2cnc(Nc3ccc(OC)c(OC)c3)cc2n1CCOC` [Compound 495, N6-(3,4-dimethoxyphenyl)-1-(2-methoxyethyl)-N2-methyl-imidazo[4,5-c]pyridine-2,6-diamine], the Emax lay within 30 to 50%.

Regarding `Cn1c(NCC2CCCO2)nc2cnc(Nc3ccc(F)c(Cl)c3)cc21` (stereo not drawn) [Compound 643, N6-(3-chloro-4-fluoro-phenyl)-1-methyl-N2-(tetrahydrofuran-2-ylmethyl)imidazo[4,5-c]pyridine-2,6-diamine], the Emax was in the range of 30 to 50%.

Regarding `CNc1nc2cnc(Nc3ccc4c(c3)OCO4)cc2n1Cc1ccccc1` [Compound 534, N6-(1,3-benzodioxol-5-yl)-1-benzyl-N2-methyl-imidazo[4,5-c]pyridine-2,6-diamine], the Emax was in the range of 50 to 100%.

Consider `CNc1nc2cnc(Nc3ccc(N4CCOCC4)cc3)cc2n1Cc1ccco1` [Compound 521, 1-(2-furylmethyl)-N2-methyl-N6-(4-morpholinophenyl)imidazo[4,5-c]pyridine-2,6-diamine], for which the Emax is over 100%.

For the origin of these results see patent EP2818472A1, “Imidazo[4,5-c]pyridine and pyrrolo[3,2-c]pyridine compounds as G-protein-coupled receptor kinase 5 (GRK5) modulators” (Max-Planck-Gesellschaft zur Förderung der Wissenschaften …, priority 2013, dated 2014).
